The record followed here is publication PMC12678798, “Discovery of an allosteric binding site for anthraquinones at the human P2X4 receptor” (Nature Communications, 2025).

For series [1], the target named is T1, hP2X4-E307T receptor mutant (Homo sapiens, UniProt Q99571, E307T).
T1 construct: host or cells: Xenopus laevis oocytes injected with cRNA (pNKS2 vector)
T1 sequence (Q99571 1-388 E307T): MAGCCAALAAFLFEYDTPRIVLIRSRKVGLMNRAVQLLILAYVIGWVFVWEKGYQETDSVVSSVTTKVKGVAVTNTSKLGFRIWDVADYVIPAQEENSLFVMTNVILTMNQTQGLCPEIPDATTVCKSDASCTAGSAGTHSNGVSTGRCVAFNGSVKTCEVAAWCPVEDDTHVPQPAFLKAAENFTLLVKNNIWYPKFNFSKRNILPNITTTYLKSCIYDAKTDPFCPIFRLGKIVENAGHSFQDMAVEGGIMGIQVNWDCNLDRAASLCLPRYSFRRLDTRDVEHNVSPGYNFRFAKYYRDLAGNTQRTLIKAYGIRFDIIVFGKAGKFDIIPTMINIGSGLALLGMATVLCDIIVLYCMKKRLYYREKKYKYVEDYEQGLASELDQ
Description: Two-electrode voltage clamp (TEVC), P2X4-E307T in Xenopus laevis oocytes. In kind it is cell-based. Conditions: for Inhibition of ATP-induced current: E307T, 10 µM ATP, 2 min preincubation, PSB-0704 3 µM, PSB-0739 300 nM and 1 µM; for IC50: read-out: pIC50 (inhibition of ATP-induced current) (converted). In general terms: Two-electrode voltage clamp holds a large cell at a set potential and records current.

The target of series [2] is T2, P2X4 receptor mutant E307T_R82A (Homo sapiens, UniProt Q99571, E307T/R82A).
T2 construct: host or cells: Xenopus laevis oocytes injected with cRNA (pNKS2 vector)
T2 sequence (Q99571 whole entry R82A/E307T): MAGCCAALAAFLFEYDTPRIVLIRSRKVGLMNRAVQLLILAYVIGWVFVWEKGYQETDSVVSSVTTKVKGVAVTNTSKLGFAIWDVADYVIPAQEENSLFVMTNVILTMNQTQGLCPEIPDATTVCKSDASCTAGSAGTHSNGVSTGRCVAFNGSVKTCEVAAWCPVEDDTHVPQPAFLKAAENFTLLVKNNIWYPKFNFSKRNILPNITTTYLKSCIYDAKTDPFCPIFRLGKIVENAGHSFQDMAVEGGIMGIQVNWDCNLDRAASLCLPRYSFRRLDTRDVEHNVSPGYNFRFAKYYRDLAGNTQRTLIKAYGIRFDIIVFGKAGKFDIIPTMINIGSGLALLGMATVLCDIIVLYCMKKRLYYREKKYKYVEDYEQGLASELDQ
Description: TEVC, double mutant E307T_R82A in Xenopus laevis oocytes. The series is classed as cell-based. Conditions: 10 µM ATP, 2 min preincubation. As for the experimental part: (§1) Xenopus laevis frogs were from Nasco International (Fort Atkinson, WI, USA) and kept at the Core Facility Animal Models (CAM) of the BMC of LMU Munich, Germany (Az: 4.3.2–5682/LMU/BMC/CAM) in accordance with the EU Animal Welfare Act. […] Fifty nanoliters of cRNA (0.5 µg/µL) were injected using a Nanoject II injector (Science Products, Drummond, USA) and oocytes were kept in ND96 (96 mM NaCl, 2 mM KCl, 1 mM MgCl2, 1 mM CaCl2, 5 mM HEPES, pH 7.4–7.5) supplemented with 5 μg/mL gentamicin at 16 °C.
(§2) cDNA encoding human P2X4 receptor (NM_002560.3) was obtained from BioCat GmbH (Heidelberg, Germany) and cloned into the pNKS2 vector[87] using Gibson Assembly (E2621L, New England Biolabs, USA) according to the manufacturer’s instructions. Point mutations were introduced by site-directed mutagenesis using KLD Enzyme Mix (M0554S, New England Biolabs, USA). All constructs were verified by full-length cDNA sequencing (Eurofins Genomics, Germany). Plasmids were linearized with NotI-HF (R3189S, New England Biolabs, USA) and purified using the MinElute Reaction Cleanup Kit (Qiagen, Hilden, Germany). […]
(§3) Statistical analysis was performed with GraphPad Prism version 10 software, and data are presented as means ± SEM. Data were assessed for normality using the Shapiro–Wilk test and for homogeneity of variances using Levene’s test. […]

A further series addresses T3, human wt P2X4 receptor (Homo sapiens, UniProt Q99571).
T3 construct: expressed in transfected cells
T3 sequence (Q99571 1-388): T1 sequence (Q99571 1-388 E307T) with T307E
Description: ATP-induced calcium influx assay, human wt P2X4 receptor in 1321N1 astrocytoma cells. The series is classed as cell-based.

Series [3] addresses T4, P2X4 receptor mutant E307Q (Homo sapiens, UniProt Q99571, E307Q).
T4 construct: host or cells: Xenopus laevis oocytes injected with cRNA (pNKS2 vector)
In words: TEVC, P2X4-E307Q mutant in Xenopus laevis oocytes. In kind it is cell-based. As to conditions: 10 µM ATP, 2 min preincubation, PSB-0704 3 µM, PSB-0739 300 nM and 1 µM. As for the experimental part: as §1, §2, §3

Series [4] has as its target T5, human P2X4-E307T receptor mutant (Homo sapiens, UniProt Q99571, E307T).
T5 construct: expressed in transfected cells
T5 sequence (Q99571 1-388 E307T): T1 sequence (Q99571 1-388 E307T)
Description: ATP-induced calcium influx assay, P2X4-E307T mutant in 1321N1 astrocytoma cells. The series is classed as cell-based. As to conditions: for Potency increase at P2X4-E307T compared to wt P2X4: ratio of IC50 values, calcium influx.

Series [5] is described as follows: Physicochemical properties (water solubility, lipophilicity). As to conditions: as stated in words.
The target in series [6] is T6, P2X4 receptor mutant E307T_R301A (Homo sapiens, UniProt Q99571, E307T/R301A).
T6 construct: host or cells: Xenopus laevis oocytes injected with cRNA (pNKS2 vector)
T6 sequence (Q99571 whole entry R301A/E307T): as the sequence (Q99571 whole entry R82A/E307T) above, with A82R, R301A counted along it
Description: TEVC, double mutant E307T_R301A in Xenopus laevis oocytes. The series is classed as cell-based. Conditions: 10 µM ATP, 2 min preincubation. As for the experimental part:
as §1, §2, §3

Series [7] concerns the target T7, P2X4 receptor mutant E307T_R301K (Homo sapiens, UniProt Q99571, E307T/R301K).
T7 construct: host or cells: Xenopus laevis oocytes injected with cRNA (pNKS2 vector)
In words: TEVC, double mutant E307T_R301K in Xenopus laevis oocytes. In kind it is cell-based. As to conditions: 10 µM ATP, 2 min preincubation. As for the experimental part:
as §1, §2, §3

Series [8] concerns the target T8, P2X4 receptor mutant E307T_K298A (Homo sapiens, UniProt Q99571, E307T/K298A).
T8 construct: host or cells: Xenopus laevis oocytes injected with cRNA (pNKS2 vector)
Description: TEVC, double mutant E307T_K298A in Xenopus laevis oocytes. The series is classed as cell-based. Conditions: 10 µM ATP, 2 min preincubation. As for the experimental part: as §1, §2, §3

The target of series [9] is T9, chimeric P2X4(P2X2) receptor c10^R301-Q308 (Homo sapiens, UniProt Q99571, A304N/D302K/DEL301-301/E307T/L303I/N306T/Q308T).
T9 construct: expressed in transfected cells; gene synthesis (Geneart), pLVX-IRES-mCherry (bicistronic, mCherry not fused)
T9 sequence (Q99571 with tags, fused parts or gaps DEL301-301/D302K/L303I/A304N/N306T/E307T/Q308T): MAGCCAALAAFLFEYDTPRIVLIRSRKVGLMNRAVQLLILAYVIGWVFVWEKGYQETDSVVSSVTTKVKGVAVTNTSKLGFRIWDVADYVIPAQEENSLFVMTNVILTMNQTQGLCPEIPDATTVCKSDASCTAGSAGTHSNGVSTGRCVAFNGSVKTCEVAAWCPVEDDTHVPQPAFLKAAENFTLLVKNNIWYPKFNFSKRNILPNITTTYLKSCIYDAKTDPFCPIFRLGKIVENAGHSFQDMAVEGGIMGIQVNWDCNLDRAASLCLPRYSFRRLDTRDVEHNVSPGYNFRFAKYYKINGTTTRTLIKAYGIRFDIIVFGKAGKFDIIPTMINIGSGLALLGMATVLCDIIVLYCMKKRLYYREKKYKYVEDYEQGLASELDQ
In words: ATP-induced calcium influx assay, chimeric receptor c10 in 1321N1 astrocytoma cells. In kind it is cell-based.

The target of another series is T10, human wt P2X2 receptor (Homo sapiens, UniProt Q9UBL9).
T10 construct: expressed in transfected cells
T10 sequence (Q9UBL9 1-471): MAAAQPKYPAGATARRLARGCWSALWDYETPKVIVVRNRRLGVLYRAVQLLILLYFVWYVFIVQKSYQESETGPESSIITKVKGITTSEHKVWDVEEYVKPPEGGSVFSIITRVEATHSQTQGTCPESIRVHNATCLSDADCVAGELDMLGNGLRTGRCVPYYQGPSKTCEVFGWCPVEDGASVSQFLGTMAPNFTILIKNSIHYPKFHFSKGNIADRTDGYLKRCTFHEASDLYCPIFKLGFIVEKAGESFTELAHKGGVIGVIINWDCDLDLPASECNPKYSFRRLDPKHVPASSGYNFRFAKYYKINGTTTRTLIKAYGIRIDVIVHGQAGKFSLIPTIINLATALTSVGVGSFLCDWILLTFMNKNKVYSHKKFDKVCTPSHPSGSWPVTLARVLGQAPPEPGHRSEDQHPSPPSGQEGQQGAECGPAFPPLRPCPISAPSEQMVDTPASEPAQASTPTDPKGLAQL
In words: ATP-induced calcium influx assay, human wt P2X2 receptor in 1321N1 astrocytoma cells. In kind it is cell-based. Conditions: for IC50: wt hP2X2.

The target in series [10] is T11, P2X4-Q308T receptor mutant (Homo sapiens, UniProt Q99571, Q308T).
T11 sequence (Q99571 1-388 Q308T): T1 sequence (Q99571 1-388 E307T) with T307E, Q308T
As to conditions: calcium influx.

Series [11] has as its target T12, chimeric P2X4(P2X2) receptor c6^N208-S216 (Homo sapiens, UniProt Q99571, I209R/N208D/S216R/T211D/T212G).
T12 sequence (Q99571 1-388 N208D/I209R/T211D/T212G/S216R): T1 sequence (Q99571 1-388 E307T) with N208D, I209R, T211D, T212G, S216R, T307E
As to conditions: ATP at EC80.

Numbering of substitutions follows the chain as printed. Entries after “also recorded” stand apart in the source; their conditions may differ. Where two headings read alike, the source gives them in different places.

T7 sequence (Q99571 whole entry R301K/E307T): as the sequence (Q99571 whole entry R82A/E307T) above, with A82R, R301K counted along it
T4 sequence (Q99571 whole entry E307Q): as the sequence (Q99571 whole entry R82A/E307T) above, with A82R, T307Q counted along it
T8 sequence (Q99571 whole entry K298A/E307T): as the sequence (Q99571 whole entry R82A/E307T) above, with A82R, K298A counted along it

As to `Nc1c(C(=O)O)cc(Nc2ccc(Nc3ccccc3)c(C(=O)O)c2)c2c1C(=O)c1ccccc1C2=O` [PSB-0704], the “Inhibition of ATP-induced current” value in [1] and in series [3] was “strong inhibition” each time. Besides, the IC50 is 1.62 µM in series [1], 12.5 ± 1.9 µM on human wt P2X4 receptor and 0.0724 ± 0.0102 µM in [4]. Further, the “Effect of mutation on antagonist potency (vs E307T)” value was “reduction in inhibitory potency” in [2], “reduction in inhibitory potency” in series [6], “similarly potent; also recorded: no consequences” in series [7] and “reduction in inhibitory potency” in series [8]. Moreover, the “Potency increase at P2X4-E307T compared to wt P2X4” value in [4] is reported as above 170 fold. In addition, the Water solubility result in series [5] is listed as “water-soluble”.

Take `Nc1c(S(=O)(=O)O)cc(Nc2ccc(Nc3ccccc3)c(S(=O)(=O)O)c2)c2c1C(=O)c1ccccc1C2=O` [PSB-0739]: the “Inhibition of ATP-induced current” value in series [1] and in [3] was “strong inhibition” each time. The IC50 in series [1] is 0.324 µM; in [9] it was 0.00341 ± 0.00049 µM; on human wt P2X4 receptor it was 8.91 ± 0.67 µM; in series [4], 0.0353 ± 0.0047 µM. Moreover, the “Effect of mutation on antagonist potency (vs E307T)” value in series [2] was “reduction in inhibitory potency”; in series [6], “reduction in inhibitory potency”; in series [7] it was “similarly potent; also recorded: no consequences”; in [8], “reduction in inhibitory potency”.

As to `Nc1c(S(=O)(=O)O)cc(Nc2ccc(Nc3nc(Cl)nc(Nc4ccccc4S(=O)(=O)O)n3)c(S(=O)(=O)O)c2)c2c1C(=O)c1ccccc1C2=O` [Cibacron Blue], the “Kind of modulation at an EC20 of ATP” value at human wt P2X2 receptor (P2X2, ATP […] (EC20)) is “no clear activating effect”. In addition, the IC50 was 13.1 µM at human wt P2X2 receptor (ATP at EC80, read-out: IC50) and 12.6 µM on human wt P2X2 receptor (read-out: pIC50 ± SEM (n value) (converted)). Moreover, the “Potency at P2X4-Q308T compared to wt P2X4” value in [10] is recorded as “similar”. The “Enhancement of the ATP effect at low concentrations” value at human wt P2X4 receptor (wt P2X4, ATP at EC80) is on record as “up to 141%”. Further, the “Kind of modulation (shape of concentration-response curve)” value is on record as “biphasic modulation” at human wt P2X4 receptor (wt P2X4, ATP at EC80) and “biphasic modulation” in [11]. Further, the “Potency increase at P2X4-E307T compared to wt P2X4” value in series [4] is on record as 680 fold. Besides, the Water solubility result in series [5] is “water-soluble”.
